In ChEMBL document CHEMBL3044809, “Design, synthesis, and fungicidal activities of new strobilurin derivatives” (2007):
In brackets after ≈: the same amount, converted by molar mass.

How the values were obtained:
Type in all cases: functional
[1] = tested on: Pseudoperonospora cubensis; assay: Antifungal activity against Pseudoperonospora cubensis inoculated in inoculated in cucumber plant assessed as preventive fungicidal activity measured after 7 days; conditions: 168 h
[2] = tested on: Pseudoperonospora cubensis; assay: Antifungal activity against Pseudoperonospora cubensis inoculated in inoculated in cucumber plant assessed as preventive fungicidal activity at 25 ug/mL measured after 7 days
[3] = tested on: Pseudoperonospora cubensis; assay: Antifungal activity against Pseudoperonospora cubensis inoculated in inoculated in cucumber plant assessed as preventive fungicidal activity at 50 ug/mL measured after 7 days
[4] = tested on: Pseudoperonospora cubensis; assay: Antifungal activity against Pseudoperonospora cubensis inoculated in inoculated in cucumber plant assessed as preventive fungicidal activity at 100 ug/mL measured after 7 days
Podosphaera fuliginea [5] = assay: Antifungal activity against Podosphaera fuliginea inoculated in inoculated in cucumber plant assessed as preventive fungicidal activity measured after 7 days; conditions: 168 h
Podosphaera fuliginea [6] = assay: Antifungal activity against Podosphaera fuliginea inoculated in inoculated in cucumber plant assessed as preventive fungicidal activity at 25 ug/mL measured after 7 days
Podosphaera fuliginea [7] = assay: Antifungal activity against Podosphaera fuliginea inoculated in inoculated in cucumber plant assessed as preventive fungicidal activity at 50 ug/mL measured after 7 days
Podosphaera fuliginea [8] = assay: Antifungal activity against Podosphaera fuliginea inoculated in inoculated in cucumber plant assessed as preventive fungicidal activity at 100 ug/mL measured after 7 days
Colletotrichum gossypii = assay: Antifungal activity against Colletotrichum gossypii assessed as inhibition rate at 50 ug/mL
Dothiorella gregaria = assay: Antifungal activity against Dothiorella gregaria assessed as inhibition rate at 50 ug/mL
Fusarium graminearum = assay: Antifungal activity against Fusarium graminearum assessed as inhibition rate at 50 ug/mL
Rhizoctonia solani = assay: Antifungal activity against Rhizoctonia solani assessed as inhibition rate at 50 ug/mL
Botrytis = assay: Antifungal activity against Botrytis cinereapers assessed as inhibition rate at 50 ug/mL
Fusarium oxysporum = assay: Antifungal activity against Fusarium oxysporum assessed as inhibition rate at 50 ug/mL

Compound | EC90 [1] | Activity [2] | Activity [3] | Activity [4] | EC90 (Podosphaera fuliginea [5]) | Activity (Podosphaera fuliginea [6]) | Activity (Podosphaera fuliginea [7]) | Activity (Podosphaera fuliginea [8]) | inhibition at 50 µg/mL (Colletotrichum gossypii) | inhibition at 50 µg/mL (Dothiorella gregaria) | inhibition at 50 µg/mL (Fusarium graminearum) | inhibition at 50 µg/mL (Rhizoctonia solani) | inhibition at 50 µg/mL (Botrytis) | inhibition at 50 µg/mL (Fusarium oxysporum)
CO/N=C(/C(=O)OC)c1ccccc1COc1ccccc1C [KRESOXIM-METHYL] | 155 µg/mL (≈ 494 µM) | 27% | 56% | 80% | 7.3 µg/mL (≈ 23.3 µM) | 98% | 100% | 100% | 50% | 82% | 53% | 70% | 50% | 61%
CO/N=C(/C(=O)OC)c1ccccc1CSc1nc(C)cc(C)n1 | – | – | – | – | – | – | – | – | 59% | 82% | 61% | 73% | 27% | 76%
CC(C)(C)C(=O)C(Oc1ccc(Cl)cc1)n1cncn1 (stereo unspecified) [TRIADIMEFON] | – | – | – | – | – | – | – | – | 95% | 61% | 72% | 90% | 84% | 86%
CO/C=C(/C(=O)OC)c1ccccc1CSc1nc2ccccc2s1 | 46.3 µg/mL (≈ 125 µM) | 62% | 94% | 100% | 6.17 µg/mL (≈ 16.6 µM) | 100% | 100% | 100% | 86% | 94% | 74% | 87% | 47% | 69%
CO/C=C(/C(=O)OC)c1ccccc1CSc1nnc(-c2ccccc2)n1N | – | – | – | – | – | – | – | – | 64% | 76% | 69% | 84% | 41% | 76%
CO/C=C(/C(=O)OC)c1ccccc1CSc1nc(C)cc(C)n1 | – | – | – | 0% | – | – | 40% | 70% | 52% | 91% | 74% | 83% | 52% | 79%
CO/N=C(/C(=O)OC)c1ccccc1CSc1nnc(CSc2nc3nc(C)cc(C)n3n2)s1 | – | – | – | – | – | – | – | – | 32% | 58% | 45% | 78% | 64% | 54%
CO/C=C(/C(=O)OC)c1ccccc1CSc1nnc(CSc2nc3nc(C)cc(C)n3n2)s1 | – | – | – | – | – | – | – | – | 39% | 69% | 44% | 58% | 14% | 61%
CO/C=C(/C(=O)OC)c1ccccc1CSc1nnc(N)s1 | – | – | – | – | – | – | – | – | 39% | 55% | 40% | 61% | 11% | 65%
CO/C=C(/C(=O)OC)c1ccccc1CSc1nc2ccccc2o1 | – | – | – | – | – | – | – | – | 83% | 46% | 81% | 78% | 47% | 69%
CO/N=C(/C(=O)OC)c1ccccc1CSc1nnc(CSc2nc3nc(C)cc(C)n3n2)o1 | – | – | – | – | – | – | – | – | 36% | 70% | 41% | 88% | 77% | 63%
CO/C=C(/C(=O)OC)c1ccccc1CSc1nnc(CSc2nc3nc(C)cc(C)n3n2)n1-c1ccccc1 | – | – | – | – | – | – | – | – | 17% | 11% | 36% | 37% | 7% | 40%
CO/C=C(/C(=O)OC)c1ccccc1CSc1nnc(CSc2nc3nc(C)cc(C)n3n2)n1N | – | – | – | – | – | – | – | – | 35% | 78% | 43% | 73% | 14% | 44%
CO/N=C(/C(=O)OC)c1ccccc1CSc1nc2ccccc2[nH]1 | – | – | – | 0% | – | – | – | 0% | 82% | 87% | 69% | 90% | 77% | 72%
CO/C=C(/C(=O)OC)c1ccccc1CSc1nc2ccccc2[nH]1 | – | – | – | – | – | – | – | – | 52% | 87% | 53% | 78% | 47% | 45%
CO/N=C(/C(=O)OC)c1ccccc1CSc1cc(=O)c2ccccc2s1 | – | – | – | – | – | – | – | – | 48% | 19% | 61% | 73% | 23% | 44%
CO/C=C(/C(=O)OC)c1ccccc1CSc1nn2c(C)nnc2s1 | – | – | – | – | – | – | – | – | 50% | 82% | 53% | 83% | 41% | 59%
CO/N=C(/C(=O)OC)c1ccccc1CSc1nc2ccccc2s1 | 150 µg/mL (≈ 404 µM) | 39% | 66% | 84% | 9.6 µg/mL (≈ 25.8 µM) | 97% | 100% | 100% | 75% | 84% | 81% | 82% | 52% | 74%
CO/C=C(/C(=O)OC)c1ccccc1CSc1nnc(CSc2nc3nc(C)cc(C)n3n2)o1 | – | – | – | – | – | – | – | – | 39% | 73% | 36% | 73% | 36% | 36%
CO/C=C(/C(=O)OC)c1ccccc1CSc1cc(=O)c2ccccc2s1 | – | – | – | – | – | – | – | – | 52% | 14% | 53% | 64% | 18% | 48%
CO/C=C(/C(=O)OC)c1ccccc1CSc1nc2nc(C)cc(C)n2n1 | – | – | – | – | – | – | – | – | 39% | 78% | 47% | 66% | 7% | 61%
CO/N=C(/C(=O)OC)c1ccccc1CSc1nc2nc(C)cc(C)n2n1 | – | – | – | – | – | – | – | – | 35% | 78% | 50% | 69% | 14% | 50%
